Consider two compounds from patent US7608640B2, “Glycine betaine and its use” (priority 2001, dated 2009).

One test relates to platelet aggregation. Nature of the test: Whole blood platelet aggregation ex vivo (aggregometer). The test is classed as in vivo, rat. To be noted: for Amplitude (platelet aggregation) / Velocity (platelet aggregation): rat, after laser firings, glycine betaine 5 mg/kg, acetylsalicylic acid 100 mg/kg, heparin 2 mg/kg; for Amplitude (platelet aggregation induced ex vivo) / Velocity (platelet aggregation induced ex vivo): 5 mg/kg. As for the experimental part:
The aggregation is made in accordance to the methods of Cardinal & Flower. Pharmacol. Method. 1980, and to American Journal of Clinical Pathology, 1989; 92: 676-679, Sureney. J D. Whole Blood aggregometry. After a keeping period of 8 days, the rats are subjected to a fasting for 12 hours. […] The rats are then anaesthetised with sodium Thiopental administered at a dose of 200 mg/Kg and the blood samples are taken by intracardiac puncture on a trisodium citrate solution (1 volume of solution at 3.8% citrate for 9 volumes of blood).

The nature of test [1]: Azure A method, in vitro binding of betaine to heparin. On the procedure:
This experiment utilized stock solutions of azure A, heparin, betaine, and a betaine-heparin combination in order to determine in vitro binding of betaine to Heparin. The stock solution of azure A was prepared at 4×10^−5 mol L^−1 by solubilizing 58.35 mg azure A in 50 ml of sterile injectable water. Next, 10 ml of this solution was diluted in 90 ml of sterile injectable water. The resulting solution was diluted again by taking 10 ml of this solution and diluting it in 90 ml of sterile injectable water. Finally, the resulting solution is filtered on Watman paper and aliquots of 4 ml are realized. The stock solution of Heparin was prepared by diluting the manufacturer-supplied stock solution (5000 UI/ml having ±150 UI/mg), (LEO Pharma, Ballerup, Denmark). One ml of this supplied solution was diluted in 499 ml of sterile injectable water in order to obtain a 10 UI/ml in final concentration. The betaine stock solution was prepared by diluting betaine in sterile injectable water in order to obtain a final concentration of 10 mg/ml. The Heparin-betaine combination stock solution was prepared by mixing 12 ml of the betaine stock solution prepared as noted above with 14.4 ml of the manufacturer-supplied Heparin stock solution (corresponding to 120 mg of betaine and 480 mg Heparin). This mixture was agitated for 2 minutes while mixing and then incubated for 10 minutes at 20° C. The final combination solution is then prepared by taking 1 ml of the solution after incubation and diluting it in 499 ml of sterile injectable water.
Each stock solution was then tested at six dilutions for its effect on heparin binding to azure A dye. The first dilution consisted of 0 μl solution, 400 μl water and 4 ml azure A solution. The second dilution consisted of 80 μl solution, 320 μl water and 4 ml azure A solution. The third dilution consisted of 160 μl solution, 240 μl water and 4 ml azure A solution. The fourth dilution consisted of 240 μl solution, 160 μl water and 4 ml azure A solution. The fifth dilution consisted of 320 μl solution, 80 μl water and 4 ml azure A solution. The sixth dilution consisted of 400 μl solution, 0 μl water and 4 ml azure A solution. Each dilution was then subjected to the azure A method which is a rapid and simple spectrophotometric method for determining heparin concentration following the formation of a soluble complex between heparin and azure A dye. Chemically, azure A is formed by 3 benzene nuclei and a terminal N^+. This soluble complex changes the typically blue color of the azure dye to purple. The principle of the test is based on the spectrophotometric absorption of the heparin/azure A dye complex at 632 nm. Heparin binding to azure A results in lowered absorbance and the solution gradually turns deeper purple as heparin concentration increases. In the presence of a substance which binds to heparin (e.g., protamine), azure A retains its blue color and absorbance remains constant. The results of this test are provided in the following table which illustrates that no significant change in the absorbance of azure A occurs when betaine is combined with heparin. However, Heparin alone has a significant effect on azure A absorption.

The mark [2] stands for this setting: Heparin UI/ml (reference) 2, second dilution, 80 μl stock solution.
Setting [3] is: Heparin UI/ml (reference) 4, third dilution, 160 μl stock solution.
[4] abbreviates: Heparin UI/ml (reference) 6, fourth dilution, 240 μl stock solution.
[5] abbreviates: Heparin UI/ml (reference) 8, fifth dilution, 320 μl stock solution.
[6] abbreviates: Heparin UI/ml (reference) 10, sixth dilution, 400 μl stock solution.
[7] abbreviates: Group I: injected 1 hour before.
Setting [8] is: Group II: injected 2 hours before.
The mark [9] stands for this setting: Group III: injected 3 hours before.
Setting [10] is: Group IV: injected 4 hours before.

For Heparin, the “Amplitude (platelet aggregation)” value with platelet aggregation is recorded as 4.33 ± 0.57 ohms. For the same compound, the “Velocity (platelet aggregation)” value in the test on platelet aggregation worked out at 2.66 ± 0.50 ohms/min. For the same compound, the “Absorbance of azure A at 632 nm” value was 1.0608 in test [1] (setting [2]); 0.8399 in test [1] (setting [3]); 0.5797 in test [1] (setting [4]); 0.358 in test [1] (setting [5]); 0.205 in test [1] (setting [6]).

`C[N+](C)(C)CC(=O)O` [Glycine betaine]: the “Amplitude (platelet aggregation induced ex vivo)” value turned out to be 11.33 ± 3.08 Ohms with platelet aggregation (setting [7]), 13.2 ± 3.5 Ohms with platelet aggregation (setting [8]), 12.7 ± 4.1 Ohms in the test with platelet aggregation (setting [9]) and 13 ± 2.8 Ohms with platelet aggregation (setting [10]). In addition, the “Velocity (platelet aggregation induced ex vivo)” value is reported as 8.2 ± 0.2 ohm/minute in the test on platelet aggregation (setting [7]), 9.3 ± 1.8 ohm/minute in the test on platelet aggregation (setting [8]), 8.7 ± 1.3 ohm/minute in the test with platelet aggregation (setting [9]) and 8.7 ± 1.15 ohm/minute in the test with platelet aggregation (setting [10]). In addition, the “Amplitude (platelet aggregation)” value in the test with platelet aggregation was 0.66 ± 1.15 ohms. Besides, the “Velocity (platelet aggregation)” value in the test on platelet aggregation is on record as 1.66 ± 1.15 ohms/min. For the same compound, the “Absorbance of azure A at 632 nm” value in test [1] (setting [2]) is given as 1.241; in test [1] (setting [3]), 1.213; in test [1] (setting [4]) it was 1.1937; in test [1] (setting [5]) it was 1.1612; in test [1] (setting [6]), 1.154.
